PubChem BioAssay (NCI)
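Interpolation was linear, between the two tested concentrations surrounding the appropriate level; five concentrations were tested over 48 hours in 96-well plates. TGI marks complete inhibition of growth.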

Experiments:
Test in all cases: NCI-60 cell line screen, 48 h
[1] = tested on: DMS 114 small cell lung
[2] = tested on: M19-MEL melanoma
[3] = tested on: KM20L2 colon
[4] = tested on: LXFL 529 NSCLC
[5] = tested on: SNB-78 CNS
[6] = tested on: DMS 273 small cell lung
[7] = tested on: DLD-1 colon
[8] = tested on: RXF-631 renal
[9] = tested on: HS 578T breast
[10] = tested on: PC-3 prostate
[11] = tested on: BT-549 breast
[12] = tested on: T-47D breast
[13] = tested on: MDA-MB-231 breast

SMILES	TGI [1]	TGI [2]	TGI [3]	TGI [4]	TGI [5]	TGI [6]	TGI [7]	TGI [8]	TGI [9]	TGI [10]	TGI [11]	TGI [12]	TGI [13]
N#CCCN(CCC#N)C(=O)c1cccc(C(=O)N(CCC#N)CCC#N)c1	> 100 µM	> 100 µM	> 63.8 µM	19.2 µM	> 100 µM	> 100 µM	> 100 µM	–	–	–	–	–	–
O=C(C/C(=N\NC(=O)C[n+]1ccccc1)C(=O)Nc1nc2ccc([N+](=O)[O-])cc2s1)CC(c1ccccc1)c1c(O)c2ccccc2oc1=O (configuration not stated)	> 100 µM	> 100 µM	> 100 µM	–	–	–	> 100 µM	–	–	–	–	–	–
NC(N)=NS(=O)(=O)c1ccc(Nc2c3ccccc3nc3c(C(=O)N4CCN(CCO)CC4)cccc23)cc1	> 100 µM	> 100 µM	> 100 µM	> 100 µM	> 100 µM	> 100 µM	> 100 µM	–	–	–	–	–	–
Cc1ccc(NC(=O)CC/C(CC(=O)C(C)(C)C)=N/NC(=O)C(N)=O)cc1C	> 100 µM	> 100 µM	> 100 µM	> 100 µM	> 100 µM	> 100 µM	> 100 µM	> 100 µM	–	–	–	–	–
O=C(O)C1CCc2nnc(-c3ccccc3)n21 (configuration not stated)	> 100 µM	> 100 µM	> 100 µM	> 100 µM	> 100 µM	> 100 µM	> 100 µM	> 100 µM	–	–	–	–	–
COc1c(C2=NC(C(C)C)CO2)ccc2ccccc12 (configuration not stated)	–	> 100 µM	> 100 µM	> 100 µM	> 100 µM	> 100 µM	> 100 µM	> 100 µM	–	–	–	–	–
CC1(C)CCC[C@@]2(C)C1C[C@H](O)[C@@]1(C)O[C@@](C)([C@H](O)CO)CCC21 (some centres not stated)	90.2 µM	> 100 µM	> 100 µM	> 100 µM	> 100 µM	> 100 µM	–	> 100 µM	–	–	–	–	–
CCC1=C(C)/C(=C/c2[nH]c(C(Br)Br)c(CC)c2C)N=C1C(Br)Br	88.6 µM	79.1 µM	> 100 µM	> 100 µM	> 100 µM	–	> 100 µM	–	–	–	–	–	–
CC1(C)OC(=O)[C@@](C)([C@H](O)c2ccccc2)O1	> 100 µM	> 100 µM	> 100 µM	> 100 µM	> 100 µM	> 100 µM	> 100 µM	> 100 µM	–	–	–	–	–
CN1C(OCc2ccccc2)c2c(ccc3c2OCO3)C2C=Cc3cc4c(cc3C21)OCO4 (configuration not stated)	0.854 µM	0.361 µM	2.95 µM	1.37 µM	2.04 µM	–	1.65 µM	2.09 µM	–	–	–	–	–
O=C1c2cccc3cc([N+](=O)[O-])cc(c23)C(=O)N1NC1=NCCN1	> 100 µM	> 100 µM	> 100 µM	> 100 µM	> 100 µM	> 100 µM	> 100 µM	> 100 µM	–	–	–	–	–
C/C=C(\C)c1cc(=O)c2c(C)cc3c(c2o1)C(=O)c1c(O)c(C2CC(C)(N(C)C)C(O)C(C)O2)cc(C2CC(N(C)C)C(O)C(C)O2)c1C3=O (configuration not stated)	4.45 µM	16.1 µM	25 µM	–	50.6 µM	11.4 µM	> 35.2 µM	–	0.517 µM	1.42 µM	0.735 µM	3.12 µM	0.764 µM
Nc1ncnc2c1ncn2C1OC(CSC(F)(F)F)C(O)C1O (configuration not stated)	> 100 µM	> 100 µM	> 100 µM	> 100 µM	> 100 µM	> 100 µM	> 100 µM	–	–	–	–	–	–
O=C(CC(=O)c1ccc([N+](=O)[O-])cc1)C(=O)Nc1nccs1	> 100 µM	–	> 100 µM	> 100 µM	> 100 µM	> 100 µM	> 100 µM	> 100 µM	–	–	–	–	–
COc1ccc(C2=Nc3ccccc3SC(C)C2)cc1 (configuration not stated)	> 100 µM	> 100 µM	> 100 µM	> 100 µM	> 100 µM	> 100 µM	> 100 µM	> 100 µM	–	–	–	–	–
COc1cc(=O)oc(/C=C/C=O)c1C	26.3 µM	35.7 µM	30.8 µM	32.4 µM	–	32.8 µM	34.3 µM	27.9 µM	–	–	–	–	–
Cc1ccc(C2CC(c3ccc([N+](=O)[O-])cc3)=Nc3ccccc3S2)cc1 (configuration not stated)	59 µM	45 µM	96.7 µM	37.5 µM	–	–	85.5 µM	> 100 µM	–	–	–	–	–
Cc1c(C(=O)CC(=O)C(=O)Nc2c(C(C)C)cccc2C(C)C)[n+](=O)c2ccccc2n1[O-]	6.41 µM	4.87 µM	15.9 µM	23.4 µM	41.3 µM	12.1 µM	–	14.4 µM	–	–	–	–	–
COC(=O)C1CC(=O)CCC1c1ccccc1 (configuration not stated)	> 100 µM	> 100 µM	> 100 µM	> 100 µM	> 100 µM	> 100 µM	> 100 µM	–	–	–	–	–	–
C=C[C@@]1(C)CCC2(O)C(CCC3C2(C)CCC[C@@]3(C)COC(=O)CC(=O)OC)C1 (some centres not stated)	–	–	33.6 µM	33 µM	68.9 µM	–	32.1 µM	38.2 µM	–	–	–	–	–
